# Values quoted from earlier work, collected in patent US20230120480A1, “METHODS FOR REMOVING CONTAMINANTS FROM PLANT-DERIVED PHARMACEUTICALS” (priority 2021, published 2023).
# Tested on: not given
row,Molecule,Water Soluble?
1,Cc1cc(O)c2c(c1)OC(C)(C)c1ccc(C)cc1-2 [Cannabiorcool],No
2,CCCCCc1cc(O)c2c(c1)OC(C)(C)[C@@H]1CC[C@](C)(O)[C@@H](O)[C@@H]21 [Cannabiripsol],No
3,CCCCCc1cc(O)c2c(c1)OC(C)(C)C1=C2C(O)C(C)(O)CC1 (stereo not shown) [Cannabitriol],No
4,CCCc1cc(O)c2c(c1)OC(C)(C)C1=C2C(O)C(C)(O)CC1 (stereo not shown) [Cannabitriolvarin],No
5,CCCc1cc(O)c2c(c1)OC(C)(C)c1ccc(C)cc1-2 [Cannabivarin],No
6,CCCCCc1cc(O)c2c(c1)OC(C)(C)C1CC=C(C)CC21 (stereo not shown) [Delta-8-tetrahydrocannabinol],No
7,CCCCCc1cc2c(c(O)c1C(=O)O)[C@@H]1CC(C)=CC[C@H]1C(C)(C)O2 [Delta-8-tetrahydrocannabinolic acid],Yes
8,"CCCCCc1cc(O)c2c(c1)OC(C)(C)[C@@H]1CCC(C)=C[C@@H]21 [Delta-9-tetrahydrocannabinol, reference compound]",No
9,CCCCc1cc(O)c2c(c1)OC(C)(C)C1CCC(C)=CC21 (stereo not shown) [Delta-9-tetrahydrocannabinol-C4],No
10,CCCCCc1cc2c(c(O)c1C(=O)O)[C@@H]1C=C(C)CC[C@H]1C(C)(C)O2 [Delta-9-tetrahydrocannabinolic acid A],Yes
11,CCCCCc1cc(O)c2c(c1C(=O)O)OC(C)(C)[C@@H]1CCC(C)=C[C@@H]21 [Delta-9-tetrahydrocannabinolic acid B],Yes
12,CCCCc1cc2c(c(O)c1C(=O)O)[C@@H]1C=C(C)CC[C@H]1C(C)(C)O2 [Delta-9-tetrahydrocannabinolic acid-C4],Yes
13,CC1=CC2c3c(O)cc(C)cc3OC(C)(C)C2CC1 (stereo not shown) [Delta-9-tetrahydrocannabiorcol],No
14,CC1=CC2c3c(cc(C)c(C(=O)O)c3O)OC(C)(C)C2CC1 (stereo not shown) [Delta-9-tetrahydrocannabiorcolic acid],Yes
15,CCCc1cc2c(c(O)c1C(=O)O)[C@@H]1C=C(C)CC[C@H]1C(C)(C)O2 [Delta-9-tetrahydrocannabivarinic acid],Yes
16,Cannabifuran,No
17,Cannbicitran,No
18,Dehydrocannabifuran,No

# Tested on: humans
row,Molecule,toxicity to humans
1,CCCCOCCOCCOCc1cc2c(cc1CCC)OCO2 [Piperonyl butoxide],non-toxic
